Measured values as given in US9416173B2, “Peptide and conjugate vaccines for fungal infections” (priority 2011, dated 2016).

Key:
[1] = system: anti-Fba antibodies in immune sera; experiment: ELISA inhibition assay with modified Fba peptides as inhibitors; format: binding, mice; details: compared with original Fba inhibition curve
Protocol: (§1) The specificity of MAb E2-9 for Fba peptide was determined by an inhibition ELISA as described previously (52, 53). Briefly, Fba-MAP was dissolved in DPBS (5 μg/ml), and the solution was used to coat 96-well ELISA plates (100 μl, overnight at 4° C.). The wells were washed five times with PBST (PBS containing Tween 20, 0.05% [vol/vol] and blocked with 1% bovine serum albumin-PBST. MAb E2-9 produced as described above, was serially diluted up to 10,000 for ELISA measurements. Unless otherwise stated, the serum was diluted 1:100 dilution in DPBS to determine the content of antibody by ELISA. MAb E2-9 was mixed with Fba peptide (inhibitor) (dissolved in PBST at a concentration between 0.1 μM and 1 mM), and the resulting solution of each concentration was added to the Fba-MAP coated microtiter wells (solid phase) in triplicate and incubated at 21 to 23° C. for 2 h. Unless otherwise stated, the concentration of test antigens used to coat the wells was about 5-10 μg/ml. The wells were washed three times with PBST, and goat anti-mouse heavy chain specific for IgM was HRP-conjugated (diluted 1:10,000 in PBST) (Sigma) and 100 μl was added to the corresponding wells and incubated for 1 h at 21 to 23° C. The wells were washed five times with PBST, followed by addition of 100 μl of substrate solution (25 ml of 0.05 M phosphate-citrate buffer [pH 5.0], 200 μl of an aqueous solution of O-phenylenediamine 50 mg/ml [Sigma], and 10 μl of 30% H2O2). Color was allowed to develop for 10 min, stopped by addition of […] of 2 M H2SO4, and read at 492 nm (microtiter plate reader, model 450; Bio-Rad, Richmond, Calif.). The percent inhibition was calculated relative to wells containing antibody without inhibitor.
The specificity of anti-Fba antibodies in immune sera was tested for the modified Fba peptides as determined by ELISA inhibition assay. Peptide 1, original Fba, which was used as an inhibitor, was included as a positive control. The inhibition curve of FIG. 17 serves to compare the curves with the other modified peptides 2-11. FIGS. 18A, 18B, 18C, and 18D show the results of ELISA inhibition assays for peptide 2, peptide 3, peptide 4 and peptide 5, respectively. Each methylated peptide was used as an inhibitor in the designated assay. […] The reaction is dose-dependent for each group, indicating anti-Fba antibodies in immune sera were specific for the modified peptides. […] The binding of peptide 11, which has two extra cysteines may indicate that the binding site of Fba with antibody is located at the carboxyl part of the peptide.

C. albicans strain 3153A = experiment: Fungal challenge and assessment of protection (disseminated candidiasis), peptide vaccines; format: in vivo, BALB/c mice; details: for protection against disseminated candidiasis (survival) / viable fungal units (CFUs) in kidneys: peptide-pulsed DC vaccine; for protection against disseminated candidiasis (survival): vs DPBS or DCs+CFA controls; for viable fungal units (CFUs) in kidneys: vs controls, detection limit 50 CFU per kidney pair; for survival rate: general peptides, experiment terminated 80 days post challenge
Protocol: C. albicans 3153A and SC5314, C. krusei (ATCC 6258), C. glabrata (ATCC 2001) and Saccharomyces cerevisiae (ATCC 9463) were obtained from the American Type Culture Collection (ATCC; Manassas, Va.) and were grown as stationary-phase yeast cells in glucose-yeast extract-peptone broth at 37° C., washed and suspended to the appropriate cell concentration (5×10^6/ml) in Dulbecco's PBS (DPBS; Sigma-Aldrich, St. Louis, Mo.), and used to infect mice intravenously (i.v.) as previously described (25, 29). C. albicans strain 3153A was also used for serum antibody absorption, immunofluorescence staining and flow cytometric analysis. Unless otherwise indicated, C. albicans strain 3153A was used to challenge the mice in the examples below.
(§2) Two weeks after the second boost, immune and control mice were infected intravenously (i.v.) with a lethal dose of live C. albicans yeast cells (5×10^5 in 0.1 ml of DPBS) prepared as described above and as before (53). Passively immunized mice (below) also received the same challenge dose. Protection was evaluated by monitoring animal survival for 80-100 days. The mice were monitored 2-3 times daily for the development of a moribund state, defined as being listless, disinterested in food or water, and nonreactive to finger probing. At the time that a mouse was deemed moribund, it was sacrificed and their kidneys (for some experiments, brains) were homogenized in DPBS and plated onto a nutrient agar to determine colony forming units (CFUs). After 80-100 days, the experiments were terminated and all the survivors at that time were sacrificed and their kidneys were assessed for CFU as before. The lowest limit of detection for the CFU assay was 50 CFU per kidney pair.
Two weeks after the second boost, immune and control mice were infected i.v. with a lethal dose of live C. albicans yeast cells (5×10^5 in 0.1 ml of DPBS). Passively immunized mice also received the same challenge dose. Protection was evaluated by monitoring animal survival for up to 120 days and by quantifying the number of CFU (mean±SE) per kidney pairs. Median survival times (MST) were statistically evaluated by Kaplan-Meier (GraphPad Prism, version 4). In all analyses, there were five mice per group (n=5), and a two-tailed t test was used.

C. albicans = experiment: Immunofluorescence and flow cytometric analysis of binding to fungal cell surface; format: cell-based; details: live fungal cells reacted with immune serum of peptide-immunized mice
Protocol: Distribution of the Fba peptide epitope on yeast cells was determined by indirect immunofluorescence. […] The yeast cells were suspended in the antibody preparation and incubated while shaking by rotation at room temperature (RT, 22-24° C.) for 1-2 h. After incubation, the yeast cells were washed with DPBS three times, suspended in 200 μl of fluorescein-labeled goat anti-mouse IgM (u-chain specific; Sigma) (stock solution, 1 mg/ml; working solution, 20 μg/ml of DPBS) and incubated at RT as described above for 0.5 h. The yeast cells were washed with DPBS three times and suspended in 200 μl of DPBS. The cells were observed by confocal microscopy (LSM 510, Zeiss). The distribution of the Fba peptide epitope on the yeast cell surface was compared to that obtained with yeast cells fluorescently stained for detection of the MAb B6.1 epitope. […] For flow cytometric analysis, following the last incubation, cells were washed as described above and suspended in the 500 μl DPBS buffer. Flow cytometry was performed using a BD Biosciences FACSVantage SE equipped with an argon laser excitation at 488 nm. 10,000 cells in each sample were analyzed (CellQuest Pro software).
Distribution of the β-(Man)3 and Fba peptide epitopes on yeast cells was determined by use of immune serum for flow cytometric analysis and indirect immunofluorescence. One hundred microliters of immune serum (1:100 dilution in 1% BSA/DPBS) was added to a pellet of C. albicans yeast cells (5×10^6) that was prewashed with DPBS buffer three times. The yeast cells were suspended in the immune serum [from β-(Man)3-Fba-TT immunized mice] preparation and incubated while shaking by rotation at room temperature (RT, 22-24° C.) for 1-2 h. After incubation, the yeast cells were washed with DPBS three times, suspended in 200 μl of fluorescein-labeled goat anti-mouse IgM (μ-chain specific; Sigma) (stock solution, 1 mg/ml; working solution, 20 μg/ml of DPBS) and incubated at RT described above for 0.5 h. The yeast cells were washed with DPBS three times and suspended in 500 μl of DPBS. Flow cytometry was performed using a BD Biosciences FACSVantage SE equipped with an argon laser excitation at 488 nm. 10,000 cells in each sample were analyzed (CellQuest Pro software).
For immunofluorescence assays, the fungal cells were immunostained and washed as described above and suspended in the 200 μl DPBS buffer. The cells were observed by confocal microscopy (LSM 510, Zeiss). The distribution of the β-(Man)3 and Fba peptide epitopes on the yeast cell surface was compared to that obtained with yeast cells fluorescently stained for detection of the MAb B6.1 epitope.

synthetic peptides = experiment: ELISA antibody responses to peptide-pulsed DC vaccines; format: in vivo, BALB/c mice; details: general fungal peptides, peptide-pulsed DC + CFA
Protocol: The murine dendritic cells (DCs) were pulsed in vitro with peptide candidate vaccine antigens as previously described (53). Briefly, DCs in culture were pulsed with the peptide antigen (1 μM) on day 6. On day 7, PGE2 (10^-7M) was added along with LPS (2 μg/ml, Sigma-Aldrich) for 24 h. On day 9, antigen-pulsed DCs were washed extensively and 5×10^5 in 200 μl DPBS were given intraperitoneally (i.p.) as the priming dose to mice. The mice were boosted i.p. at day 14 with fresh antigen-pulsed DCs and boosted a second time at day 28 with antigen (10 μg) emulsified in complete Freund adjuvant (CFA) given subcutaneously (s.c.).
Sera were ELISA analyzed for antibody titers. For DC-based immunization, control groups consisted of mice given DCs alone at the time of priming and first booster followed by CFA alone at the time of the second booster, or DPBS alone for all three injections. For Fba peptides administered with alum or MPL, control groups were mice given adjuvant alone or DPBS buffer. […] Synthetic Fba-MAP (GenScript) was dissolved at 5 μg/ml in PBS (pH 7.4) and used to coat 96-well ELISA plates for testing duplicate serial 2-fold dilutions of samples of each immune serum and control sera. Color development for each well was achieved by use of secondary antibody (goat anti-mouse polyvalent Ig-HRP) and substrate (O-phenylenediamine and H2O2) and OD determined at 492 nm.
FIGS. 1A-1C show the antibody responses in BALB/c mice against peptide-pulsed DC vaccines. Sera from mice immunized with the six synthetic peptide carriers presented on dendritic cells (DCs) for the priming and first booster immunizations and emulsified in complete Freund adjuvant (CFA) for the second booster were tested by ELISA for antibody responses against the peptides. Control groups consisted of mice given the same regimen for priming and boosters except that the peptides were omitted (DCs+CFA) or DPBS only was used at each injection time. […] The bars of each panel indicate means of CFUs per kidney pair for each group. The lowest limit of detection for the CFU assay is 50 CFU per kidney pair.
Sera were ELISA analyzed for antibody titers. Control groups consisted of mice given DCs alone at the time of priming and first booster followed by DPBS at the time of the second booster, DPBS for the priming and first booster and CFA alone at the time of the second booster, DPBS alone for all three injections, or DCs alone for priming and first booster followed by CFA alone at the time of the second booster. Briefly, synthetic peptides were dissolved at 10 μg/ml in PBS (pH 7.4). […] Color development for each well was achieved by secondary antibody (goat anti-mouse polyvalent immunoglobulin-HRP, Sigma) and substrate (O-phenylenediamine and H2O2) and Optical Density (OD) determined at 492 nm.

MAb E2-9 = experiment: Inhibition ELISA (MAb E2-9 on Fba-MAP coated wells, Fba peptide as inhibitor); format: binding; details: soluble Fba peptide inhibiting MAb E2-9 reactivity with solid phase Fba-MAP
Protocol: as §1, with “The wells were washed three times with PBST, and goat anti-mouse heavy chain specific for IgM was HRP-conjugated (diluted 1:10,000 in PBST) (Sigma) and 100 μl was added to the corresponding wells and incubated for 1 h at 21 to 23° C. The wells were washed five times with PBST, followed by addition of 100 μl of substrate solution (25 ml of 0.05 M phosphate-citrate buffer [pH 5.0], 200 μl of an aqueous solution of O-phenylenediamine 50 mg/ml [Sigma], and 10 μl of 30% H2O2).” left out

Fba peptide [2] = system: Fba peptide; design: species or system BALB/c mice; details: mouse, in vivo
[3] = system: C. albicans strain SC5314; experiment: Fungal challenge and assessment of protection, strain SC5314; format: in vivo, BALB/c mice; details: Fba peptide by dendritic cell approach
Protocol: as §2
To test if vaccination with the Fba peptide pulsed DCs protects mice challenged with a different C. albicans strain, we challenged immunized mice with C. albicans strain SC5314 (ATCC), which is the most commonly used clinical isolate of C. albicans for research purposes. As a positive control, a second group of mice immunized at the same time were challenged with C. albicans strain 3153A.

Fba peptide [4] = experiment: Rabbit antisera against the Fba peptide (titers); format: in vivo; details: Fba conjugated to KLH; each of two rabbits; commercial source (Genscript); data not shown
Text: To obtain enough antisera for passive transfer experiments, and to determine whether the Fba peptide is immunologically restricted in other animal species, we obtained rabbit antisera against the peptide from a commercial source (Genscript). Fba was conjugated to keyhole limpet hemocyanin (KLH) prior to the rabbit immunizations.

Fba peptide [5] = experiment: ELISA antibody responses against the Fba peptide in C57BL/6 mice; format: in vivo; details: DC-based immunization; 14 days after second booster
Protocol: By the same DC-based immunization approach used for the BALB/c mice as described above, C57BL/6 mice was tested with the Fba peptide was given alone or as a glycoconjugate compared to the control groups of mice injected with DPBS buffer, or DCs+CFA.
Fourteen days after the second booster, immune sera were tested by ELISA for antibody responses against the Fba peptide.

Row | Sequence | effect on peptide-antibody binding (ELISA inhibition, peptide as inhibitor) [1] | protection against disseminated candidiasis (survival) (C. albicans strain 3153A) | viable fungal units (CFUs) in kidneys (C. albicans strain 3153A) | other results
1 | YGKDVKDLFDYAQE (methylated at position 3) [Pep4] | little effect on peptide-antibody binding |  |  | 
2 | DSRGNPTVEVDFTT [Eno1] |  | neither of two other peptides Gap1, or Eno1 induced protection | slightly less fungal burden | 
3 | VPLDGKTITNNQRI [Pgk1] |  | some protection | low or non-detectable CFUs | 
4 | YDQVLDLSLLFNAIP [Met6-2] |  |  |  | survival rate (C. albicans strain 3153A; DC immunization): 80%; binding of antibody in the immune serum to the peptides expressed on C. albicans cell surface (flow cytometric analysis) (C. albicans): expressed on the fungal surface and are accessible to antibodies in immune sera; antibody responses (ELISA, plates coated with the peptide) (synthetic peptides): able to induce antibody responses
5 | YGKDCVKCDLFDYAQE (cysteine added at positions 5 and 8) (cysteines added at positions 5 and 8) [Pep 11] | bound well to antibody |  |  | 
6 | FAIPAINVTSSSTVVAALE [Fba3] |  |  |  | survival rate (C. albicans strain 3153A; DC immunization): 80%; binding of antibody in the immune serum to the peptides expressed on C. albicans cell surface (flow cytometric analysis) (C. albicans): expressed on the fungal surface and are accessible to antibodies in immune sera; antibody responses (ELISA, plates coated with the peptide) (synthetic peptides): able to induce antibody responses
7 | YGKDVKDLFDYAQE [Fba] |  | a high degree of protection | low or even non-detectable | concentration of inhibitor (Fba peptide) required to achieve 50% inhibitory concentration (MAb E2-9): about 10 μg/ml; binding of antibody in the immune serum to the peptides expressed on C. albicans cell surface (flow cytometric analysis) (C. albicans): expressed on the fungal surface and are accessible to antibodies in immune sera; anti-Fba IgM and IgG antibodies in sera (Fba peptide [2]): very low levels of anti-Fba IgM and IgG antibodies; survival time ([3]; vs DCs+CFA or DPBS (P<0.01)): significant prolonged survival time; CFUs in kidneys ([3]; vs controls (P<0.01)): greatly reduced or non-detectable CFUs; Titers of anti-Fba peptide immune sera (Fba peptide [4]): 512,000; antibody responses against the Fba peptide (ELISA, Fba-MAP coated plates) (Fba peptide [5]): strong antibody responses
8 | YGKDVKDLFDYAQE (methylated at position 5) [Pep5] | little effect on peptide-antibody binding |  |  | 
9 | SSSTVVAAL [Fba4] |  |  |  | survival rate (C. albicans strain 3153A; DC immunization): 60%; binding of antibody in the immune serum to the peptides expressed on C. albicans cell surface (flow cytometric analysis) (C. albicans): expressed on the fungal surface and are accessible to antibodies in immune sera; antibody responses (ELISA, plates coated with the peptide) (synthetic peptides): able to induce antibody responses
10 | YGKDVKDLFDYAQE (methylated at position 2) [Pep3] | little effect on peptide-antibody binding |  |  | 
11 | FAIPAINVTSSSTV [Fba2] |  |  |  | protection (survival) vs DC+CFA control (C. albicans strain 3153A; general peptides experiment, DC immunization): failed to induce good protection; antibody responses (ELISA, plates coated with the peptide) (synthetic peptides): good and specific antibody responses
12 | NRSPSTGEQKSSGI [Gap1] |  | neither of two other peptides Gap1, or Eno1 induced protection | slightly less fungal burden | 
13 | YGKDVKDLFDYAQE (methylated at positions 1 and 8) [Pep10] | bound well to antibody |  |  | 
14 | QGETEEALIQKRSY [Hwp1] |  | a high degree of protection | low or even non-detectable | 
15 | PRIGGQRELKKITE [Met6] |  | a high degree of protection | low or even non-detectable | 
16 | YGKDVKDLFDYAQE (methylated at position 1) [Pep2] | little effect on peptide-antibody binding |  |  | 
